These results are taken from patent US6071884A, “Pharmaceutical compositions and therapeutic methods” (Kirin Beer Kabushiki Kaisha, priority 1992, dated 2000).

Assay [1] relates to marrow cells (mononuclear cell fraction). The experiment in a line: Proliferation-stimulating effect on marrow cell of mouse (3H-TdR uptake). Type of assay: cell-based, mouse (BALB/c). Particulars: percentage of control, 72 h; for activity at 0.1 µg/mL: 10^-1 μg/ml; for activity at 0.01 µg/mL: 10^-2 μg/ml; for activity at 0.001 µg/mL: 10^-3 μg/ml; for activity at 1 µg/mL: 10^0 μg/ml. As for the experimental part: Pharmacological Test 1: Proliferation-Stimulating Effect on Marrow Cell of Mouse
Marrow cells were prepared from the thigh bone of a 7 week old female BALB/c mouse purchased from Japan SLC Co., Ltd., and a mononuclear cell fraction (MNF) obtained by fractionation using a lympholyte-M (Cedar Lane, Ontario, Canada) was used in the following experiment.
The concentration of the MNF was adjusted to 1.5×10^6 cells/ml by using 10% FCS RPMI 1640 (Nissui Pharmaceutical Co., Ltd., Tokyo, Japan) as a culture medium. 10 μl/well of a sample with a predetermined concentration and 100 μl/well of the above-prepared MNF were placed on a round-bottomed 96 well plate, and incubated under the conditions of 37° C. and 5% CO2 for 72 hours. Thereafter, 0.5 μCi/well of ^3 H-thymidine (^3 H-TDR) was added. After 8 hour incubation, the cells were harvested, and the amount of the 3H-TdR taken in the nuclei was measured by a liquid scintillation counter.

Assay [2] in a line: Life-span-increasing effect on irradiation of a lethal dose of radiation. Type of assay: in vivo, mouse (BDF1). Particulars: 10 mice/group, 9 Gy X-ray, 0.1 mg/kg i.v. days 0, 4, 8. As for the experimental part: Pharmacological Test 4: Life-Span-Increasing Effect on Irradiation of a Lethal Dose of Radiation
An experiment was carried out by using 6 week old female BDF1 mice purchased from Japan SLC Co., Ltd., with 10 mice made one group.
The entire bodies of the entire body of the mice were irradiated with 9 Gy of X-rays by using a Hitachi X-ray irradiator (MBR-1520R), and the day on which the X-ray was irradiated was referred to as "day 0".

In assay [3] the test system is blood platelets. The experiment in a line: Thrombocytopenia-inhibiting effect in X-ray-irradiated mice. Type of assay: in vivo, mouse (BDF1). Particulars: 10 days after 5 Gy X-ray; 0.1 mg/kg i.v. within 2 h; mean ± SD; vehicle per series 10.3, 6.8, 6.7; non-treatment 68.2, 96.9, 73.0. As for the experimental part:
Pharmacological Test 5: Thromboclytopenia-Inhibiting Effect
The thrombocytopenia-inhibiting effect of each sample upon an X-ray-irradiated mouser which is one of models with a decreased number of blood platelets was examined.
An experiment was carried out by using 6 week old female BDF1 mice purchased from Japan SLC Co., Ltd., with 6 mice made one group.
5 Gy of X ray was irradiated to the entire body of the mice by a Hitachi X-ray irradiator CMBR-1520R). Within 2 hours after the irradiation, each sample was administered to the caudal vein of the mice at an amount of 0.1 mg/kg.
After 10 days, blood was collected from the fundus vein of the mice, and the number of blood platelets was measured by a sequential multi-channel hemocytometer E-2500/cs (Toa Iyo Denshi Kabushiki Kaisha). The number of blood platelets of the non-treated group, that of the medium-administered group, and that of the sample-administered group are shown in Table 5.

Assay [4] concerns blood platelets. Nature of the assay: Blood-platelet-increasing effect upon normal mouse. It counts as in vivo, mouse (BDF1). The following applies: normal mice; 6 days after 0.1 mg/kg i.v.; mean ± SD; vehicle per series 58.2, 63.0, 71.1. As for the experimental part: Pharmacological Test 6: Blood-Platelet-Increasing Effect upon Mouse
An experiment was carried out by using 6 week old female BDF1 mice purchased from Japan SLC Co., Ltd., with 5 mice made one group.
Each sample was administered to the caudal vein of the mice at a dose of 0.1 mg/kg. After 6 days, blood was collected from the fundus vein of the mice, and the number of blood platelets was measured by a sequential multi-channel hemocytometer E-2500/cs (Toa Iyo Denshi Kabushiki Kaisha). The number of blood platelets of the vehicle-administered group, and that of the sample-administered group are shown in Table 6.

The mark [5] stands for this setting: day 10, controls per series 10, 10, 10, 10, 10, 8.
The mark [6] stands for this setting: day 15, controls per series 8, 9, 5, 5, 7, 1.
The mark [7] stands for this setting: day 20, controls per series 4, 5, 1, 2, 3, 0.
The mark [8] stands for this setting: day 25, controls per series 3, 3, 0, 0, 2, 0.
Setting [9] is: day 30, controls per series 1, 1, 0, 0, 0, 0.

On to `CCCCCCCCCCCCCCCCCCCCCCCC(=O)N[C@@H](CO[C@H]1O[C@H](CO)[C@H](O)[C@H](O)[C@H]1O)[C@H](O)CCCCCCCCCCCCCCC` [Compound 1, (2S,3R)-1-(α-D-galactopyranosyloxy)-2-tetracosanoylamino-3-octadecanol], for which the activity at 0.1 µg/mL in assay [1] turned out to be 465%. For the same compound, the activity at 0.01 µg/mL in assay [1] amounted to 263%. The activity at 0.001 µg/mL in assay [1] is 134%. For the same compound, the “Number of Surviving Mice” value worked out at 10 mice in assay [2] (setting [5]); 10 mice in assay [2] (setting [6]); 10 mice in assay [2] (setting [7]); 9 mice in assay [2] (setting [8]); 9 mice in assay [2] (setting [9]); 9 mice in assay [2] (day 35, all controls 0). Further, the “Number of Surviving Mice” value in assay [2] (day 40, all controls 0) is given as 9 mice. For the same compound, the “Number of Blood Platelets” value in the assay on blood platelets [3] is recorded as 25.4 ± 6.8 × 10^4 /μl; in the assay on blood platelets [4], 112.2 ± 6.5 × 10^4 /μl.
For the compound `CCCCCCCCCCCCCCCCCCCCCC(=O)N[C@@H](CO[C@H]1O[C@H](CO)[C@H](O)[C@H](O)[C@H]1O)[C@H](O)CCCCCCCCCCCCCCC` [Compound 2, (2S,3R)-2-docosanoylamino-1-(α-D-galactopyranosyloxy)-3-octadecanol], the activity at 1 µg/mL in assay [1] is 915%. In addition, the activity at 0.1 µg/mL in assay [1] came out at 295%. In assay [1], the activity at 0.01 µg/mL came to 92%. In assay [1], the activity at 0.001 µg/mL was determined as 123%. For the same compound, the “Number of Surviving Mice” value came out at 10 mice in assay [2] (setting [5]); 10 mice in assay [2] (setting [6]); 9 mice in assay [2] (setting [7]); 9 mice in assay [2] (setting [8]); 9 mice in assay [2] (setting [9]); 9 mice in assay [2] (day 35, all controls 0). The “Number of Surviving Mice” value in assay [2] (day 40, all controls 0) is given as 8 mice. Besides, the figures for the “Number of Blood Platelets” value in the assay on blood platelets [3] and with blood platelets [4] were 21.5 ± 5.4 × 10^4 /μl and 96.3 ± 7.3 × 10^4 /μl, respectively.
Turning to `CCCCCCCCCCCCCCCCCCCC(=O)N[C@@H](CO[C@H]1O[C@H](CO)[C@H](O)[C@H](O)[C@H]1O)[C@H](O)CCCCCCCCCCCCCCC` [Compound 3, (2S,3R)-1-(α-D-galactopyranosyloxy)-2-icosanoylamino-3-octadecanol], the activity at 0.1 µg/mL in assay [1] turned out to be 234%. Besides, in assay [1], the activity at 0.01 µg/mL was found to be 87%. For the same compound, the activity at 0.001 µg/mL in assay [1] amounted to 84%. In addition, the “Number of Surviving Mice” value is listed as 10 mice in assay [2] (setting [5]); 9 mice in assay [2] (setting [6]); 8 mice in assay [2] (setting [7]); 8 mice in assay [2] (setting [8]); 8 mice in assay [2] (setting [9]); 8 mice in assay [2] (day 35, all controls 0). Further, in assay [2] (day 40, all controls 0), the “Number of Surviving Mice” value turned out to be 8 mice. The “Number of Blood Platelets” value is reported as 20.6 ± 4.5 × 10^4 /μl in the assay with blood platelets [3] and 102.0 ± 10.8 × 10^4 /μl in the assay with blood platelets [4].
As for `CCCCCCCCCCCCCCCCCC(=O)N[C@@H](CO[C@H]1O[C@H](CO)[C@H](O)[C@H](O)[C@H]1O)[C@H](O)CCCCCCCCCCCCCCC` [Compound 4, (2S,3R)-1-(α-D-galactopyranosyloxy)-2-octadecanoylamino-3-octadecanol], the activity at 0.1 µg/mL in assay [1] was 297%. In addition, the activity at 0.01 µg/mL in assay [1] came to 75%. In addition, in assay [1], the activity at 0.001 µg/mL is 151%. Moreover, the “Number of Surviving Mice” value in assay [2] (setting [5]) is recorded as 10 mice; in assay [2] (setting [6]), 10 mice; in assay [2] (setting [7]) it was 8 mice; in assay [2] (setting [8]) it was 7 mice; in assay [2] (setting [9]), 5 mice; in assay [2] (day 35, all controls 0), 5 mice. Moreover, in assay [2] (day 40, all controls 0), the “Number of Surviving Mice” value was 5 mice. Moreover, the “Number of Blood Platelets” value with blood platelets [3] was 14.3 ± 4.7 × 10^4 /μl; in the assay with blood platelets [4], 83.1 ± 6.5 × 10^4 /μl.
`CCCCCCCCCCCCCCC[C@@H](O)[C@H](CO[C@H]1O[C@H](CO)[C@H](O)[C@H](O)[C@H]1O)NC(=O)CCCCCCCCC` [Compound 6, (2S,3R)-2-decanoylamino-1-(α-D-galactopyranosyloxy)-3-octadecanol]: the activity at 0.1 µg/mL in assay [1] was determined as 391%. For the same compound, the activity at 0.01 µg/mL in assay [1] is 196%. In assay [1], the activity at 0.001 µg/mL came to 71%. Moreover, the “Number of Surviving Mice” value was found to be 9 mice in assay [2] (setting [5]); 6 mice in assay [2] (setting [6]); 2 mice in assay [2] (setting [7]); 2 mice in assay [2] (setting [8]); 2 mice in assay [2] (setting [9]); 2 mice in assay [2] (day 35, all controls 0). In assay [2] (day 40, all controls 0), the “Number of Surviving Mice” value turned out to be 2 mice. For the same compound, the “Number of Blood Platelets” value was 15.4 ± 3.2 × 10^4 /μl in the assay with blood platelets [3] and 93.0 ± 12.1 × 10^4 /μl in the assay on blood platelets [4].
For `CCCCCCCCCCCCCCC[C@@H](O)[C@H](CO[C@H]1O[C@H](CO)[C@H](O)[C@H](O)[C@H]1O)NC(=O)CCCCCCC` [Compound 7, (2S,3R)-1-(α-D-galactopyranosyloxy)-2-octanoylamino-3-octadecanol], the activity at 1 µg/mL in assay [1] is 972%. In addition, the activity at 0.1 µg/mL in assay [1] is 631%. For the same compound, the activity at 0.01 µg/mL in assay [1] was 351%. Further, the activity at 0.001 µg/mL in assay [1] is 313%. Further, the “Number of Surviving Mice” value in assay [2] (setting [5]) stood at 10 mice; in assay [2] (setting [6]) it was 8 mice; in assay [2] (setting [7]), 6 mice; in assay [2] (setting [8]), 5 mice; in assay [2] (setting [9]), 5 mice; in assay [2] (day 35, all controls 0), 5 mice. For the same compound, the “Number of Surviving Mice” value in assay [2] (day 40, all controls 0) was determined as 5 mice. Besides, the “Number of Blood Platelets” value with blood platelets [3] is 12.3 ± 4.0 × 10^4 /μl; in the assay with blood platelets [4], 76.0 ± 5.1 × 10^4 /μl.
`CCCCCCCCCCCCCCC[C@@H](O)[C@H](CO[C@H]1O[C@H](CO)[C@H](O)[C@H](O)[C@H]1O)NC(C)=O` [Compound 8, (2S,3R)-2-acetamino-1-(α-D-galactopyranosyloxy)-3-octadecanol]: the activity at 0.1 µg/mL in assay [1] was determined as 232%. In assay [1], the activity at 0.01 µg/mL is 81%. The activity at 0.001 µg/mL in assay [1] worked out at 129%. The “Number of Surviving Mice” value in assay [2] (setting [5]) amounted to 10 mice; in assay [2] (setting [6]), 5 mice; in assay [2] (setting [7]) it was 1 mice; in assay [2] (setting [8]), 1 mice; in assay [2] (setting [9]), 1 mice; in assay [2] (day 35, all controls 0) it was 1 mice. Besides, in assay [2] (day 40, all controls 0), the “Number of Surviving Mice” value was found to be 1 mice. Besides, the “Number of Blood Platelets” value in the assay on blood platelets [3] is on record as 8.1 ± 2.6 × 10^4 /μl; in the assay with blood platelets [4], 96.6 ± 3.2 × 10^4 /μl.
`CCCCCCCCCCCCCCCCCCCCCCCC(=O)N[C@@H](CO[C@H]1O[C@H](CO)[C@H](O)[C@H](O)[C@H]1O)[C@H](O)CCCCCCCCCCC` [Compound 9, (2S,3R)-1-(α-D-galactopyranosyloxy)-2-tetracosanoylamino-3-tetradecanol]: the activity at 0.1 µg/mL in assay [1] was 547%. Further, the activity at 0.01 µg/mL in assay [1] was 103%. For the same compound, the activity at 0.001 µg/mL in assay [1] was 134%. Also, the “Number of Surviving Mice” value in assay [2] (setting [5]) is reported as 10 mice; in assay [2] (setting [6]), 8 mice; in assay [2] (setting [7]) it was 6 mice; in assay [2] (setting [8]) it was 6 mice; in assay [2] (setting [9]), 6 mice; in assay [2] (day 35, all controls 0) it was 6 mice. The “Number of Surviving Mice” value in assay [2] (day 40, all controls 0) amounted to 6 mice. The “Number of Blood Platelets” value is listed as 17.6 ± 3.4 × 10^4 /μl in the assay on blood platelets [3] and 100.5 ± 8.3 × 10^4 /μl in the assay with blood platelets [4].
